In patent US20250032651A1, “[177LU] LUTETIUM-PSMA I&T COMPOSITION AND DOSIMETRY, KIT, METHOD OF MAKING, AND METHOD OF USING THEREOF” (Curium US LLC, priority 2022, published 2025):

How the values were obtained:
[1] = Radiochemical purity of ^177Lu-PSMA I&T by HPLC in different formulation compositions, hours post EOS (Example 3); assay type: physicochemical
Procedure: Product formulation details are described in Table 6.
Radiochemical purity of each solution was followed by HPLC up to 71-93 hours post-radiolabeling.

[2] = Biodistribution: SPECT/CT time-activity curves (fraction of injected activity), whole-body half-lives; assay type: in vivo, human; conditions: Cycle 1
Procedure: This Example presents the biodistribution, dosimetry, and pharmacokinetics (PK) results of a PK/Dosimetry sub-study performed as part of a Phase III trial. Twenty-seven (27) patients were administered a target activity of 7.4±10% GBq of ^177Lu-PSMA-I&T and underwent single photon emission computed tomography (SPECT)/computed tomography (CT) imaging at four timepoints (4 h, 24 h, 48 h, and 168 h). Image data was analysed to compute time-activity curves (TACs) and subsequently time-integrated activity coefficients (TIACs) in each organ of interest and in organs showing appreciable and meaningful ^177Lu-PSMA-I&T activity. Organ Level Internal Dose Assessment (OLINDA 2.2.3) was used to compute organ and whole body absorbed radiation doses for each patient.
All participating sites underwent a rigorous site setup process during which all dose calibrators, scanners, and gamma counters used in the sub-study were calibrated. Sites were allowed to enroll patients in the sub-study only after the completion and approval of all site setup processes by Invicro. Patients underwent SPECT/CT imaging, with anatomical coverage typically extending from the salivary glands to the pelvis, following the administration of a targeted 7.4±10% GBq of ^177Lu-PSMA-I&T at cycle 1. SPECT/CT imaging was performed at four timepoints: 4 h, 24 h, 48 h, and 168 h post-injection. Additionally, a subset of patients imaged at Cycle 1 (16 out of 27), were also imaged at Cycle 3 (Table 2).
Volume of interest (VOI) (kidneys, bladder, liver, lumbar vertebrae L2-L4, lacrimal glands, salivary glands [parotid and submandibular glands], and whole body) were delineated on each dataset by a trained image analyst. […] Organs were segmented either by drawing the entire contour of the organ, or by placing a sphere in a representative region of the organ and then multiplying by the organ's effective mass (based on patient's height and weight). Segmentation methods for each organ are specified in Table 3 and were consistently applied to each patient.
Clearance of the radiopharmaceutical was derived from a data-appropriate fit of each organ's TAC. Depending on the TAC's shape, the data was fitted with the sum of one, two, or three exponentials, or using a rise and fall model. Fitting was performed with in-house Python software. TIACs were calculated through analytical integration of the curve fit extrapolated to infinity. […] A whole-body TAC was derived from delineating the imaged body. The remainder activity was determined by subtracting the cumulative organ TIACs from the whole body TIAC.
Note: the time-activity curves in these figures are not decay-corrected to time of injection.
The whole-body time-activity curves were fitted with bi-exponential equation and the two components were used for the distribution and elimination half-life.

[3] = bi-exponential fit of whole-body time-activity curves, excluding patient 42-030

For `O=C([O-])CC[C@H](NC(=O)N[C@@H](CCCCNC(=O)CCCCCCC(=O)NCCCC[C@@H](NC(=O)[C@@H](Cc1ccccc1)NC(=O)[C@@H](Cc1ccc(O)c(I)c1)NC(=O)CC[C@H](C(=O)[O-])N1CCN(CC(=O)[O-])CCN(CC(=O)[O-])CCN(CC(=O)[O-])CC1)C(=O)[O-])C(=O)[O-])C(=O)[O-].[177Lu+3].[H+].[H+].[H+].[H+].[H+]` [^177Lu-PSMA I&T, (3S,7S,26R,29R,32R,37R)-29-benzyl-32-(4-hydroxy-3-iodobenzyl)-5,13,20,28,31,34-hexaoxo-37-(4,7,10-tris(carboxymethyl)-1,4,7,10-tetraazacyclododecan-1-yl)-4,6,12,21,27,30,33-heptaazaheptatriacontane-1,3,7,26,37-pentacarboxylic acid; lutetium-177 (III)], the “radiochemical purity as measured by HPLC” value ([1]; 10 ml high RAC formulation, 42.5 mg/ml ascorbic acid, 0 hours post EOS) was “at least 99%”, the “radiochemical purity as measured by HPLC” value ([1]; 10 ml high RAC formulation, 42.5 mg/ml ascorbic acid, 46 hours post EOS) was “at least 93.3%” and the “radiochemical purity as measured by HPLC” value ([1]; 20 ml low RAC formulation, 31 mg/ml ascorbic acid, 0 hours post EOS) was “at least 99.1%”. For the same compound, the “adequate radiochemical stability (radiochemical purity at least 95%)” value ([1]; about 31 mg/ml ascorbic acid, pH about 4.5, radioactivity concentration about 640 MBq/ml or below) was “four”, the “decrease in radiochemical purity over time at pH 4.5 compared with pH 7” value ([1]; high RAC solutions) was “two times slower” and the radiochemical purity ([1]; high radioactivity concentration, pH 4.5, 42.5 mg/ml ascorbic acid, 24 hours post EOS) was 98.0%. It also gave a radiochemical purity ([1]; high radioactivity concentration, pH 4.5, 42.5 mg/ml ascorbic acid, 46 hours post EOS) of 96.7%, a radiochemical purity ([1]; high radioactivity concentration, pH 4.5, 42.5 mg/ml ascorbic acid, 67 hours post EOS) of 95.3% and a radiochemical purity ([1]; high radioactivity concentration, pH 4.5, 42.5 mg/ml ascorbic acid, 71 hours post EOS) of 95.2%. For the same compound, the “radiochemical stability (radiochemical purity)” value ([1]; low RAC solution, pH 4.5, ascorbic acid 31 mg/ml, for 72 hours or longer) was “above 95.0%”, the radiochemical purity ([1]; low radioactivity concentration 579 MBq/ml, pH 4.5, 21 mg/ml ascorbic acid, 92 hours post EOS) was 96.0% and the radiochemical purity ([1]; low radioactivity concentration 588.5 MBq/ml, pH 4.5, 31 mg/ml ascorbic acid, 20 hours post EOS) was 98.7%. It also gave a radiochemical purity ([1]; low radioactivity concentration 588.5 MBq/ml, pH 4.5, 31 mg/ml ascorbic acid, 44 hours post EOS) of 98.0%, a radiochemical purity ([1]; low radioactivity concentration 588.5 MBq/ml, pH 4.5, 31 mg/ml ascorbic acid, 69 hours post EOS) of 97.4% and a radiochemical purity ([1]; low radioactivity concentration 588.5 MBq/ml, pH 4.5, 31 mg/ml ascorbic acid, 93 hours post EOS) of 97.0%. It also gave a radiochemical purity ([1]; low radioactivity concentration 626 MBq/ml, pH 5.0, 31 mg/ml ascorbic acid, 0 hours post EOS) of 99.2%, a radiochemical purity ([1]; low radioactivity concentration 626 MBq/ml, pH 5.0, 31 mg/ml ascorbic acid, 25 hours post EOS) of 98.4% and a radiochemical purity ([1]; low radioactivity concentration 626 MBq/ml, pH 5.0, 31 mg/ml ascorbic acid, 47 hours post EOS) of 97.3%. The “radiochemical stability (radiochemical purity)” value ([1]; lowered formulation radioactivity concentration, for 72 hours, experiments conducted previously) was “above 95.0%”, the “whole body mean activity retention at 4 h” value ([2]; averaged across patients excluding 42-030) was 44%±13% and the “whole-body distribution half-life (mean)” value [2, 3] was 2.16 ± 1.30 h. The “whole-body elimination half-life (mean)” value [2, 3] was 46.29 ± 23.83 h, the “whole body activity retention at 4 h, max” value ([2]; excluding 42-030) was 78% and the “whole body activity retention at 4 h, min” value ([2]; excluding 42-030) was 24%. For the same compound, the route of excretion ([2]; visible accumulation in the urinary bladder) was “primarily excreted through the urine”.
